Test results taken from ChEMBL document CHEMBL3297653, “2-Amino-7-substituted benzoxazole analogs as potent RSK2 inhibitors” (Bioorg Med Chem Lett, 2014).

Tests used:
[1] = molecular target: Tyrosine-protein kinase JAK2 (Homo sapiens, UniProt O60674); test: Inhibition of JAK2 (unknown origin)
Aurora kinase A = molecular target: T1, Aurora kinase A (Homo sapiens, UniProt O14965); test: Inhibition of aurora A (unknown origin)
T1 sequence (O14965 whole entry): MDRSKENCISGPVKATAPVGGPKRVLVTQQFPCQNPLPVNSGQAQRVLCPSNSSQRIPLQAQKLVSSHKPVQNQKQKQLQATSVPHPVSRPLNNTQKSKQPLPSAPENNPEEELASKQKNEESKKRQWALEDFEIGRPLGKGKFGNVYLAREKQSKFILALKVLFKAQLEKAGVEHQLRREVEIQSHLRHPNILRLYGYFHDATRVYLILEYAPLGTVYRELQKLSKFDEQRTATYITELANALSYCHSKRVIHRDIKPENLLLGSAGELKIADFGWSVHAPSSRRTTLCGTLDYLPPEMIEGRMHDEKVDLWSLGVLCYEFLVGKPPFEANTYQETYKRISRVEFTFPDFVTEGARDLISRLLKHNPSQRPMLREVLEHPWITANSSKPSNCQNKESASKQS

MDA-MB-231 = test: Cytotoxicity against human MDA-MB-231 cells assessed as growth inhibition after 5 days by CellTitre-glo assay; assay type: functional, cell-based; settings: MDA-MB-231, 120 h

Chain of Tyrosine-protein kinase JAK2 (O60674 whole entry): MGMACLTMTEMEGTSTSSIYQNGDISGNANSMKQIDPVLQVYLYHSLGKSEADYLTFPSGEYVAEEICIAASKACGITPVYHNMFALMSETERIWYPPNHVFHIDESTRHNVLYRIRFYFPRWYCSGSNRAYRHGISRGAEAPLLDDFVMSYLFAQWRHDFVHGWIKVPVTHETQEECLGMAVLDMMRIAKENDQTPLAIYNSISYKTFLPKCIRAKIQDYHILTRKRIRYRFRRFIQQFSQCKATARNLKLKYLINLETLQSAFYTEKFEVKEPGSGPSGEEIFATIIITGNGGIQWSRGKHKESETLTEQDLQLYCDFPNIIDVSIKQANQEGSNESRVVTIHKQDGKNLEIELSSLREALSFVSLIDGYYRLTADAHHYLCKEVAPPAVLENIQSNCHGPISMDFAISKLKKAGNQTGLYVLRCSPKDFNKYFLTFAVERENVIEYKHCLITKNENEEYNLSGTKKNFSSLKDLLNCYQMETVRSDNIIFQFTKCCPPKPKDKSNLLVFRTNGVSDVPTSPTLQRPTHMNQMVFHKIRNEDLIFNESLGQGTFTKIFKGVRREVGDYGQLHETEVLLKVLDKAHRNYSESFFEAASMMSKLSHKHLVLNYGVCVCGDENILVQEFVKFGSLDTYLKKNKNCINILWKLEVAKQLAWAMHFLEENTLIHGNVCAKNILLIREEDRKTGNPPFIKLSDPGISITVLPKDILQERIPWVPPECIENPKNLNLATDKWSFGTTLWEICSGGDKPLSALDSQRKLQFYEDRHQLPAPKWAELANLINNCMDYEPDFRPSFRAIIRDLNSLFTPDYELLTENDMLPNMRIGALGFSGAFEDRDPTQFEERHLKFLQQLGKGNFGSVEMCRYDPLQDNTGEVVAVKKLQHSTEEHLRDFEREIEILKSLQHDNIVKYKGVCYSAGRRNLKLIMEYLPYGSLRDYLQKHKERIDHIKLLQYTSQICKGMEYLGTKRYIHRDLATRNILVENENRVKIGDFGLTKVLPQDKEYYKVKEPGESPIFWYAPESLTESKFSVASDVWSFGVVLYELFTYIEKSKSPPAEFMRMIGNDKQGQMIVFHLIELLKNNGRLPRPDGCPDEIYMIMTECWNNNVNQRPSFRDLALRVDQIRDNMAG

**Q.** For COc1cc(Nc2nc3cccc(-c4cccc5[nH]cnc45)c3o2)cc(OC)c1OC, which IC50 [1] is on record?
**A.** Its IC50 is 460 nM.

**Q.** And the IC50 (Aurora kinase A)?
**A.** The IC50 was 600 nM.

**Q.** And the EC50 (MDA-MB-231)?
**A.** The EC50 was 580 nM.
